Source: patent publication US10905775B2, “Particulate constructs for release of active agents” (CELATOR PHARMACEUTICALS, INC., priority 2004, dated 2021)

What was measured:
[1] = Nanoparticle size by dynamic light scattering (DLS); type: physicochemical; conditions: control: unconjugated paclitaxel + VitES + mPEG5-PCL7
Procedure: A 300 mM sucrose solution is prepared, loaded into a 100 ml gas tight syringe, and fixed on a second syringe pump. […] At the mixer outlet, two samples are collected. The first sample is collected in a scintillation vial and analyzed for particle size by dynamic light scattering (DLS), and the second sample is collected in low temperature freezer vials, and freeze-dried. The freeze-drying cycle is the following: −40° C. overnight, −10° C. for a day, 4° C. for a day, and then room temperature for one day. […] The samples are checked visually for crystals/aggregates formation. […] A freeze-dried sample is dissolved in methanol to dissociate the nanoparticles, and the solution is tested for the presence of THF using CGC. Particle size may be determined by DLS. […] The sample collected in a scintillation vial from the mixer effluent is inserted into the DLS sample cell containing decalin scintillation fluid (maintained at 25° C. using a temperature bath), and left to equilibrate to the cell temperature. The run duration is 60 seconds, replicated three times. The particle size expressed as the hydrodynamic diameter is obtained using an ALV 5000 correlator and a second order cumulant fit.

[2] = Visual check / description of nanoparticle samples for crystals, aggregates, stability; type: physicochemical; conditions: control: unconjugated paclitaxel 8 mg + VitES 10 mg + mPEG5-PCL7 in THF mixed against water
Procedure: A 300 mM sucrose solution is prepared, loaded into a 100 ml gas tight syringe, and fixed on a second syringe pump. […] At the mixer outlet, two samples are collected. The first sample is collected in a scintillation vial and analyzed for particle size by dynamic light scattering (DLS), and the second sample is collected in low temperature freezer vials, and freeze-dried. The freeze-drying cycle is the following: −40° C. overnight, −10° C. for a day, 4° C. for a day, and then room temperature for one day. […] The samples are checked visually for crystals/aggregates formation. […] A freeze-dried sample is dissolved in methanol to dissociate the nanoparticles, and the solution is tested for the presence of THF using CGC.

Q: With CC(=O)O[C@H]1C(=O)[C@@]2(C)[C@H]([C@H](OC(=O)c3ccccc3)[C@]3(O)C[C@H](OC(=O)[C@H](O)[C@@H](NC(=O)c4ccccc4)c4ccccc4)C(C)=C1C3(C)C)[C@]1(OC(C)=O)CO[C@@H]1C[C@@H]2O [paclitaxel] as the compound, how does the “particles detected by Dynamic Light Scattering” value [1] read?
A: Its value is “no particles were detected”.

Q: What about the “time after mixing at which crystals were visible” value [2] of the same compound?
A: Its value is “about 20 minutes”.
